Measurements taken from patent US20100184773A1, “Germline Polymorphisms in the Angiogenic Pathway Predict Tumor Recurrence in Cancer Therapy” (priority 2007, published 2010).

Tested on: Stage III Colon Cancer
Assay: Time to tumor recurrence in patients with stage III colon cancer, by type of adjuvant therapy (retrospective, log-rank test)
Format: in vivo, human
Description: Methods and Patients: One hundred and twenty five patients with stage III colon cancer who were treated with 5-FU-based adjuvant chemotherapy at the University of Southern California/Norris Comprehensive Cancer Center (USC/NCCC) or the Los Angeles County/University of Southern California Medical Center (LAC/USCMC), between 1992 and 2007, were eligible for the present study. This study was conducted at the USC/NCCC and approved by the Institutional Review Board (IRB) of the University of Southern California for Medical Sciences. Patient data were collected retrospectively through chart review. Informed consent was signed by all patients involved in the study.
Statistical analysis: The primary endpoint in this study was time to tumor recurrence (TTR) in stage III colon cancer patients, which was defined as the time from the date of diagnosis of stage III colon cancer to the date of first recurrence, […], or until last contact if the patient was free of any tumor recurrence at the time of last contact. If a patient had not recurred, then TTR was censored at the time of death or at the last follow-up. The associations of time to tumor recurrence with patient's clinico-pathologic characteristics (age, sex, race, tumor grade, T-stage, N-stage and type of chemotherapy) were assessed using univariate survival analyses (log-rank test).
The association between each polymorphism and time to recurrence was examined using Kaplan-Meier curves and log-rank test. The distributions of polymorphisms across demographic characteristics were examined using Fisher's exact test. In the univariate survival analysis, the Pike estimate of relative risk (RR) and its associated 95% confidence interval (95% CI) was based on the log-rank test.

O=c1[nH]cc(F)c(=O)[nH]1 [5-FU, 5-Fluorouracil]
Median time to recurrence (TTR) (patients with stage III colon cancer, by adjuvant therapy, '+' = estimates were not reached): 3.9 yrs
Probability ± SE of 3-year recurrence (stage III colon cancer, by adjuvant therapy, Greenwood SE): 0.47 ± 0.06
Relative risk (tumor recurrence, stage III colon cancer, reference = 5-FU group, Pike estimate based on log-rank test): 1
